Measured values taken from patent publication US20240335395A1, “COMPOSITIONS AND METHODS FOR PREVENTING AND/OR TREATING DISEASE ASSOCIATED WITH IL-23 EXPRESSION” (ALLSPIM, priority 2021, published 2024).

Tests used:
[1] = test system: IL-23; test: IL-23 protein in culture supernatant of RA-patient synovial cells; assay type: cell-based, human; settings: increasing concentrations
[2] = test system: SOD1 G93A mice; test: SOD1 G93A mouse model of ALS, motor symptoms and neuroscore; assay type: in vivo; settings: 50 mg/kg daily oral in gel from 21 days post-natal
Text: Animals. The ALS mouse model is the SOD1 G93A (Gurney et al. Science 1994). Mutations in the SOD1 gene represent about 20% of the mutations in human familiar forms of ALS. Mice with multiple human transgenes with the G93A mutation in the SOD1 gene develop a progressive muscle paralysis and a loss of spinal motor neurons as in human patients. We used the high expressor lines (Jackson Labs #002726 B6SJL-Tg(SOD1*G93A)1 Gur/J) that contains at least 15 copies of the human transgene. SOD1 G93A males are crossed with B6/SJL females (Janvier Labs #SH-B6SJL-F1; hybrid model B6SJLF1/JRj). Genotyping allows us to identify the transgenic animals in the litter.
Symptoms progression is assessed using a neuroscore grid as in Hatzipetros et al. JoVE 2015. Mice are euthanized when they are transitioning from neuroscore 2 to neuroscore 3 (full paralysis of one hindlimb). This transition happens about 120-130 days post-natal in our breeding conditions and in the absence of the 2,4-D treatment. Non transgenic littermates are used as control animals.
Chronic administration of 2,4-D in mice. […] Daily delivery of the drug for a long time period (about 100 days) is not compatible with IP injections for ethics considerations and also because of the infection risk. We then rely on oral administration in a gel using a method modified from Lei Zhang, Star Protocol 2021. Briefly, the gel is produced by mixing alimentary gelatin (8%, Vahiné) in a 2% sucralose solution (Myprotein, zero calory, no flavor) and by heating this mixture at 60° C. for 20-30 minutes until clarification. An artificial flavor, for instance “cheese flavor” (Arôme Alimentaire Emmental 58 ml Cuisineaddict), 2 microliters/milliliter), may be added to this preparation along with some kibble grinds to powder (the same kibble as the one used in the house facility for ordinary diet) for improving palatability. This mixture is then aliquoted in individual daily portions of 315 microliters. 1 to 2 mg of 2,4-D (depending on the mouse body weight, 50 mg of 2,4-D per kg of mouse body weight) is added to each portion while the mixture is still warm (2,4-D is not added in the vehicle portions given to untreated animals). This mixture solidifies in a jelly form upon cooling. The gel can be kept in a fridge (4° C.) for 6 days. We usually have 4 mice (males or females) per cage. To feed the mice with 2,4-D we remove the ordinary kibbles (sometime 4 hours before) and we physically isolated each mouse in a corner of the cage with a plexiglass cross placed in the cage to separate four compartments. One portion jelly is placed at the bottom of each compartment until the mouse has eaten it. In the case the mouse has not eaten the full portion after 3 hours, we evaluate how much was taken by the mouse. […]

COc1cc(O)c(OC)c(O)c1C(=O)/C=C/c1ccccc1 [2,4-D, 2′,4′-dihydroxy-3′,6′-dimethoxychalcone]
concentration of IL-23 protein in the culture supernatant [1]: significantly inhibited | neuroscore progression (from 0 to 3) [2]: tends to slow down | time at which neuroscore 3 is reached (survival time) [2]: tends to be delayed | time at which the axial tonus is lost, compared with vehicle [2]: significantly extends | time at which the full hindlimb extension is lost, compared with vehicle [2]: significantly extends
